Results as given in US20190055231A1, “BACE1 INHIBITORS” (Hoffmann-La Roche Inc., priority 2016, published 2019).
Where two headings read alike, the source gives them in different places.

Legend:
Rat single dose PK study = type: in vivo; conditions: 1 mg/kg; for concentration at 4 h: oral
Procedure: (§1) Rat Single Dose PK Study (Inhibition of CSF Aβ40 in Wistar Rats)
(§2) The rat single dose PK study was described in H. Hilpert et al., J. Med. Chem. 2013, 56, 3980-3995 (dx.doi.org/10.1021/jm400225m) with slight modifications.
(§3) Blood is transferred into a labeled EDTA-K2 Eppendorf tube and the sample is mixed by inverting the tubes several times. Blood is stored at −20° C.

CSF Aβ40 = assay: Rat single dose study, inhibition of CSF Aβ40 in Wistar rats; type: in vivo; conditions: rat CSF Aβ40, 1 mg/kg, 4 h post dose
Procedure: as §1, §2
(§4) Aβ 40 concentration was determined without solid phase extraction following a modified protocol from Perkin-Elmer with a commercially available antibody against the N-terminal part of rat Aβ (252Q6, Invitrogen cat. No. AMB0062) and an in-house C-terminal specific anti-Aβ40 antibody (BAP-24, Brockhaus M. et al., J. Neuroreport, 1998, 9:1481-1486) bound to acceptor beads (PerkinElmer, Cat. 6772002). 20 μl analyte per well (reconstituted extracts or standard) were loaded to a White Optiplate-96 (Perkin-Elmer, Cat#6005290). Then, a mixture of biotinylated BAP24 antibody (1:2000 diluted at approximately 1 nM final concentration) and antibody 252Q6 bound to AlphaLISA acceptor beads (Perkin-Elmer cat. No. 6772002 (1:100 diluted, 10 ug/mL final concentration) in 1× AlphaLISA buffer (Perkin-Elmer, AL000F) was added. After 1 hour room temperature incubation in the dark, 20 μL of a streptavidin coated donor beads dilution (40 μg/mL) were added and incubated for 30 minutes in the dark. Light emission at 615 nm was recorded using an EnVision AlphaScreen Reader (Perkin-Elmer). Levels of Aβ 40 were calculated as percentage of the baseline samples from non-treated animals.

[1] = tested on: Aβ40 in brain of wild-type mice; assay: Mouse acute in vivo model (inhibition of Aβ40 in brain of wild-type mice); conditions: 4 h post dose
Procedure: Mouse Acute In Vivo Model (Inhibition of Aβ40 in Brain of Wild-Type Mice)
Single Dose Efficacy in Mice
The mouse single dose efficacy was measured in brain homogenate from C57Bl/6J wildtype mice after DEA extraction as described in H. Hilpert et al., J. Med. Chem. 2013, 56, 3980-3995 (dx.doi.org/10.1021/jm400225m).
as §4, with “determined after” for “determined without”, “extraction as described above and” for “extraction”, “20 uL” for “20 μL”, “of Aβ40” for “of Aβ 40”
Aβ40 lowering was determined after oral administration in wild-type mice (C57Bl/6J mice, n=3-4) 4 h post dosing. Wild-type mice were used as they have a normal physiological level of APP expression and are thus expected to provide a better physiological model for Aβ-peptide production than APP-transgenic organisms. In vivo efficacy is a key factor for appropriate drug candidates, being more relevant than in vitro activities.

Mouse P-gp = Mouse P-gp (Mus musculus, UniProt P21447); assay: P-gp transport assay (mouse); type: in vitro ADME; conditions: efflux ratio
Text: (§5) P-Gp Transport Assay (Human and Mouse) (P-Gp Assay)
(§6) In the assay of the P-gp efflux ratio ER as described hereinabove, a compound with ER<2.5 is regarded most suitable. In addition, compounds with low hERG channel binding are suitable as well.

hERG channel = hERG channel (Homo sapiens, UniProt Q12809); assay: hERG IC20 assay; type: cell-based
Text: The methods to determine the hERG IC20 values was described in Industrializing electrophysiology: HT automated patch clamp on SyncroPatch® 96 using instant frozen cells. Polonchuk L., Methods Mol Biol. 2014; 1183:81-92. (doi: 10.1007/978-1-4939-1096-0_5.) PMID:25023303
QT prolongation is a cardiovascular risk caused by drug candidates which inhibit the hERG channel (human ether a go-go). A sufficient safety margin between the hERG IC20 value and the free plasma concentration necessary to achieve the envisaged thereapeutic effects is desired (ICH. The nonclinical evaluation of the potential for delayed ventricular repolarization (QT interval prolongation) by human pharmaceuticals (S7B), issued as CPMP/ICH/423/02, adopted by CHMP in May 2005 (http://www.ich.org/cache/compo/276-254-1.html; Redfern W S, Carlsson L, Davis A S, Lynch W G, MacKenzie I, Palethorpe S, Siegl P K, Strang I, Sullivan A T, Wallis R, Camm A J, Hammond T G. Relationships between preclinical cardiac electrophysiology, clinical QT interval prolongation and torsade de pointes for a broad range of drugs: evidence for a provisional safety margin in drug development. Cardiovasc Res. 2003 Apr. 1; 58(1):32-45.)). Reducing the activity against efflux transporters expressed at the blood-brain-barrier such as P-glycoprotein P-gp, might result in reduction of the free plasma concentration by optimizing brain penetration.

Human P-gp = Human P-gp (Homo sapiens, UniProt P08183); assay: P-gp transport assay (human); type: in vitro ADME; conditions: efflux ratio
Text: as §5, §6

[2] = Cynomolgus monkey single dose PK study; type: in vivo, Cynomolgus monkey (Macacaca fascicularis)
Text: Cynomolgus Monkey (Macacaca fascicularis) Single Dose PK Study and Plasma Aβ40 Determination
Blood and plasma collection will always be performed in the treatment cage. The animal care keeper grabs either one arm or one leg through the bars. The hairs are shaved for better visibility of the vein. The blood vessel is squeezed, the vein is punctured by using a butterfly and blood is taken. Once enough blood has been withdrawn a cotton swab is placed over the injection site and the needle is gently removed. Bleeding is stopped by pressing a cotton swab on the wound. Plasma samples were taken between 5 min and 48 h.
Plasma Preparation Cynomolgus
as §3

hERG channel, sequence (Q12809 whole entry): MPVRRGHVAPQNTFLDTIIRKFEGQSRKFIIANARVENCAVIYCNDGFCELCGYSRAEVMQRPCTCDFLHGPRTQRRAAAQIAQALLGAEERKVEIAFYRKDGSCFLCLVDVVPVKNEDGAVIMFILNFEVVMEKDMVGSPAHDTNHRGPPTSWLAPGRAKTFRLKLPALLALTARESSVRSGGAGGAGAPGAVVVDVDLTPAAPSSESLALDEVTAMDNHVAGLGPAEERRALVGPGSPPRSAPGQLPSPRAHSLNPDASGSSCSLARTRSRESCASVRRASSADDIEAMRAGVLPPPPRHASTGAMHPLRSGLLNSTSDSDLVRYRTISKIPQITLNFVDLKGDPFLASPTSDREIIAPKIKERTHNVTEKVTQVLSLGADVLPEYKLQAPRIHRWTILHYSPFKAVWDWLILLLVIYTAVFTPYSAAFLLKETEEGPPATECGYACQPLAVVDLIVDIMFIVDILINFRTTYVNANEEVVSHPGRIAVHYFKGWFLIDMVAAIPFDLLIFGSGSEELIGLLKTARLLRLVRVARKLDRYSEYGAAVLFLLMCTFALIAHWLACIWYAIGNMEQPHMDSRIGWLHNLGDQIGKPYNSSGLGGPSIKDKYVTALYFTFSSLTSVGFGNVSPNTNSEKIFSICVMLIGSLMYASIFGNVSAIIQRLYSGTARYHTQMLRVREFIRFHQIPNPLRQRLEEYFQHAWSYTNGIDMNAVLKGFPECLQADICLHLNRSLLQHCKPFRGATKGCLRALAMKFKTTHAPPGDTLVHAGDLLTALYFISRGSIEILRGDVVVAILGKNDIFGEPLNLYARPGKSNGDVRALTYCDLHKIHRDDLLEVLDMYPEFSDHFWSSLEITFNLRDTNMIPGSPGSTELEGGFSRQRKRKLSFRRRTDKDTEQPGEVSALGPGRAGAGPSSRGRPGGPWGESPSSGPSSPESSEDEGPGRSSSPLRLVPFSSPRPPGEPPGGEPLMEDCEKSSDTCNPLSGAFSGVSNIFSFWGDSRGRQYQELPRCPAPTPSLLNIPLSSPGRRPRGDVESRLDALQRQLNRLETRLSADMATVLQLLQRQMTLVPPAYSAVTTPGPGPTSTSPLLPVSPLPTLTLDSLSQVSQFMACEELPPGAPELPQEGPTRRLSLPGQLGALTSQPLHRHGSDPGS
Mouse P-gp, sequence (P21447 whole entry): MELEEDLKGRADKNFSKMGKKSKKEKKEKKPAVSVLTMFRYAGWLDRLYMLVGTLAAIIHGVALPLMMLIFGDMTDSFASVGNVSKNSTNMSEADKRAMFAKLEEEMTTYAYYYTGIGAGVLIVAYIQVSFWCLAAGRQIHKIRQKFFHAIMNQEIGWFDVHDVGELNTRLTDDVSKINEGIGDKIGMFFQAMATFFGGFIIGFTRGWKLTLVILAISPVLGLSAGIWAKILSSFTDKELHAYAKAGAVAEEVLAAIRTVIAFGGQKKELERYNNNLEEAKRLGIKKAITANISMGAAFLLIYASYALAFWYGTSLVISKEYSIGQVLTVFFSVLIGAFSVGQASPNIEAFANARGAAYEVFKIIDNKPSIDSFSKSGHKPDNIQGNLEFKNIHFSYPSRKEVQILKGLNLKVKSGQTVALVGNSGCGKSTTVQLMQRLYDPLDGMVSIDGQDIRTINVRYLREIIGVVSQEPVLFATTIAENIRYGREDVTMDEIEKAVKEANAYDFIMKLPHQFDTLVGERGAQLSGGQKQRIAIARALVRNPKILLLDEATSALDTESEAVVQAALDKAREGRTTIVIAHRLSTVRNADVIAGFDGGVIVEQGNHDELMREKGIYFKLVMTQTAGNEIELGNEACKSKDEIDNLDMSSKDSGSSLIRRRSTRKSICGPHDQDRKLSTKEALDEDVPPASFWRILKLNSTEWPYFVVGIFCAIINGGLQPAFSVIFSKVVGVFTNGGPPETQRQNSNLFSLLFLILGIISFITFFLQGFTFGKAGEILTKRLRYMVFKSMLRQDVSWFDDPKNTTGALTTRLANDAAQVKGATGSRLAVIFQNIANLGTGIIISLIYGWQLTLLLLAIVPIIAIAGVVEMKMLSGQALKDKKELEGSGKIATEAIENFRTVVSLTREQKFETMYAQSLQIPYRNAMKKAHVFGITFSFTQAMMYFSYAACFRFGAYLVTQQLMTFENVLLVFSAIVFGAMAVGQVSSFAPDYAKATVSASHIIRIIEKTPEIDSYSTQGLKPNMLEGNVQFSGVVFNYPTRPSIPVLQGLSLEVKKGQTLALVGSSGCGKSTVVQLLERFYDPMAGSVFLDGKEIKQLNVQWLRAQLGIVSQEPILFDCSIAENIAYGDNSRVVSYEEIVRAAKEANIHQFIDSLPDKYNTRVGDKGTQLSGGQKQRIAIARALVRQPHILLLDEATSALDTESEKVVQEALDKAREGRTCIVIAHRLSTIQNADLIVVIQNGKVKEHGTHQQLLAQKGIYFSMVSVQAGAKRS
Human P-gp, sequence (P08183 whole entry): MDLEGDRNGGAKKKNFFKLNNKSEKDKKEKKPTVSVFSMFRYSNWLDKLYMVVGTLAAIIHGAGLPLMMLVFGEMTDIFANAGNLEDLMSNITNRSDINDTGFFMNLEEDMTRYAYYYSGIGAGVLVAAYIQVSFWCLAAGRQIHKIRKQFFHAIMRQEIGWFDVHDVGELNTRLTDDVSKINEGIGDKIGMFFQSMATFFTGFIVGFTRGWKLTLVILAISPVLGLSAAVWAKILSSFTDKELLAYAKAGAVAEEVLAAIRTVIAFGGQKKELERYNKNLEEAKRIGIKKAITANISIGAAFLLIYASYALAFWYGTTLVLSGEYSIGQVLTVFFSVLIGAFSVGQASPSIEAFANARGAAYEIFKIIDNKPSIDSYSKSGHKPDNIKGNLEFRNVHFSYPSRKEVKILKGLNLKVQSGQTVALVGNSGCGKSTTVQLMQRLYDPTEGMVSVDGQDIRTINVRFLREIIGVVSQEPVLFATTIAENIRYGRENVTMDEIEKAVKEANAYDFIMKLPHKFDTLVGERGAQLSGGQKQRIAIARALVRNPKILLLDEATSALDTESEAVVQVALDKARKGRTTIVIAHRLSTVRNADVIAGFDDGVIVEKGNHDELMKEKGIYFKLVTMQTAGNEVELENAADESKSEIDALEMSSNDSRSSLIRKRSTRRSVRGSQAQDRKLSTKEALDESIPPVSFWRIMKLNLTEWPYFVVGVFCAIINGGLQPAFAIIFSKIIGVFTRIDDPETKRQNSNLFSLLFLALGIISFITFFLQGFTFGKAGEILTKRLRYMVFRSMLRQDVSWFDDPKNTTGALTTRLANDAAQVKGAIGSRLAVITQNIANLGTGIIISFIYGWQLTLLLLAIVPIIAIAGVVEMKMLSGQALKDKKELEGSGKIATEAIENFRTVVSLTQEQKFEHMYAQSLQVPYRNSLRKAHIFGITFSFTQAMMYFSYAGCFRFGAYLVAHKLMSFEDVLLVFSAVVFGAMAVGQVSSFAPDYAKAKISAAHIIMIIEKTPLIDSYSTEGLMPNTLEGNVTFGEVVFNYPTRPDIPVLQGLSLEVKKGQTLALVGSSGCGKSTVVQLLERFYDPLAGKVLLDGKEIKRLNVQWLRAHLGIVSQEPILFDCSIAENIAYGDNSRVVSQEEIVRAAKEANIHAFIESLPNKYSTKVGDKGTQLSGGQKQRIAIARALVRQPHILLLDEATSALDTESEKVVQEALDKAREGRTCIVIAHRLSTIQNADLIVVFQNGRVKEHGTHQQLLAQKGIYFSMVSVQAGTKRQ

Plasma concentration at 4 h, free (Rat single dose PK study; 4 h, free unbound): 36.3 nM
Plasma concentration at 4 h (Rat single dose PK study; 4 h, total): 193 nM
concentration at 4 h (Rat single dose PK study; Wistar, plasma, 4 h, free unbound, read-out: Plasma concentration at 4 h, free): 36.3 nM
concentration at 4 h (Rat single dose PK study; Wistar, plasma, 4 h, free, read-out: Plasma concentration at 4 h, free): 85 ng/mL
concentration at 4 h (Rat single dose PK study; Wistar, plasma, 4 h, total, read-out: Plasma concentration at 4 h): 85 ng/mL
bioavailability (Rat single dose PK study; Wistar, plasma, po, read-out: Oral Bioavailability F): 19%
Mouse P-gp ER (Mouse P-gp): 2.4
Human P-gp ER (Human P-gp): 1.1
lower exposure compared to example 1 [2]: 5 fold
clearance ([2]; plasma): 9.7 mL/min/kg
bioavailability ([2]; plasma, po, read-out: Oral Bioavailability F): 63%
half-life ([2]; plasma, po, read-out: t1/2 p.o. (converted)): 11 h
Compound: C[C@]1(c2nc(NC(=O)c3ccc(C#N)cn3)ccc2F)N=C(N)O[C@H](C(F)(F)F)[C@@H]1F [Comparator 6]
CSF Aβ-lowering 1 mg/kg at 4 h (CSF Aβ40): 77%
Brain Aβ-lowering 3 mg/kg ([1]; single p.o. dose 3 mg/kg): 86%
Brain Aβ-lowering 10 mg/kg ([1]; single p.o. dose 10 mg/kg): 94%
higher affinity to hERG than example 1 (hERG channel): 6 fold
IC20 (hERG channel; human, hERG IC20 assay): 0.4 µM
